According to patent US20060148908A1, “Supressant of toxicity induced by cancer chemotherapeutic agent and composition of cancer chemotherapeutic agent containing the same” (priority 2003, published 2006):
“Also recorded” adds a separate entry of the source.

How the values were obtained:
[1] = tested on: ICR mice; experiment: Kidney and spleen weight relative to body weight in cisplatin-treated mice; format: in vivo; settings: for specific gravity of kidney: oral pretreatment for 4 days before cisplatin injection, versus cisplatin only
Description: Cisplatin was intraperitoneally injected in mice. After some time passed, body weights of the mice were checked and induction of toxicity was confirmed. Blood was gotten from the heart of etherized mouse, and biochemical markers related to the induction of hepatotoxicity and nephrotoxicity were evaluated, and the kidney and spleen were separated and weighed for comparison.
Changes of specific gravity of kidney were also measured to evaluate suppressing effects of xanthorrhizol on nephrotoxicity induced by cisplatin.
(§1) The kidney and spleen were separated and weighed, respectively.

[2] = tested on: ICR mice; experiment: Serum biochemical parameters (GPT, GOT, BUN, creatinine) in cisplatin-treated mice; format: in vivo
Description: as §1
Blood samples obtained from heart were kept at room temperature for 2 h, centrifuged at 3000 rpm for 10 minutes to obtain sera, and stored at low temperature for analyzing proteins. GPT (Glutamate-Pyruvate Transaminase), GOT (Glutamate-Oxaloacetate Transaminase), blood urea nitrogen (BUN), and creatinine from the serum were measured.
The principle is following: α-ketoglutaric acid+alanine→glutamate+pyruvate. Pyruvate formed by GPT enzyme in said reaction is reacted with 2,4-dinitrophenylhydrazine and the intensity of color formed by the resulting reaction is related to enzymatic activity. The absorbance was determined at 505 nm. The reagents for determining GPT and GOT were purchased from Sigma chemical Co. (St. Louis, U.S.A.). Because hemolyzed serum contains a high level of GOT and GPT compared to normal serum, only unhemolyzed serum should be used as much as possible. The separated serum samples were stored at 4° C. and used within 5 days because the activity of GPT and GOT might decrease after 5 days at low temperature.
1 ml alanine-α-KG substrate was added to test tube and was pre-warmed at 37° C. for 2-3 minutes. 0.2 ml serum samples was added to each tube and incubated at 37° C. for 30 minutes in water bath. After that, 1 ml 2,4-dinitrophenylhydrazine was added and incubated at room temperature for 20 minutes. 10 ml 0.4N NaOH solution was added to each tube and was mixed well. After that, the GPT absorbance of each tube was read comparing with distilled water. In case of GOT determination, 1 ml aspartate-α-KG substrate was pre-warmed at 37° C. for 2-3 minutes, and 0.2 ml serum samples were added to each tube and incubated at 37° C. for 60 minutes, and the absorbance was read.
Through a kit for assaying blood urea nitrogen, Ammonia (NH3) formed by hydrolysis of urea was measured by the absorbance at 570 nm.
0.5 ml urease solution was added to test tube and mixed with 10 μl serum sample, and incubated in water bath at 37° C. for 5-10 minutes. 1 ml phenol nitroprusside solution and 1 ml alkaline hypochlorite solution were added to the tube and mixed gentlely, and 5 ml distilled water was added. After that, the absorbance of the reaction was measured comparing with distilled water as a control. The reagents for determining urea nitrogen were purchased from Sigma chemical Co. (St. Louis, U.S.A.) and standard calibration curve was used.
Standard calibration curve was used.
3 ml alkaline picrate solution and 0.3 ml serum sample were mixed well at 37° C. for 20 minutes and the absorbance (A1) was measured. Distilled water was used for a negative control. 0.1 ml acid solution (mixture of sulfuric acid and acetic acid) was added to each tube and incubated in water bath at 37° C. for 5 minutes. After that, the absorbance (A2) was read with distilled water as a negative control. Absorbance of the sample for determining the content of creatinine is absorbance (A1) minus absorbance (A2) according to standard calibration curve. The reagents for determining creatinine were purchased from Sigma chemical Co. (St. Louis, U.S.A.)

[3] = tested on: AP-1
Description: (§2) The density of band was measured by RFLPscan software.
as §1
(§3) EMSA (electrophoretic mobility shift assay) was performed to evaluate the xanthorrhizol's effects on NF-κB and AP-1. […] After that, powdered liver tissues were homogenized in 500 μl of cool hypotonic buffer [10 mM HEPES (pH 7.8), 10 mM KCl, 1.5 mM MgCl2, 0.5 mM DIT, 0.2 mM PMSF]. To the homogenates was added 125 μl of 10% NP-40 solution, and the mixture was then centrifuged at 12,000×g for 1 min. Pellets were washed once with 100 μl of the above buffer and 12.5 μl of 10% NP-40, centrifuged, resuspended in 50 μl of 20 mM cool HEPES buffer (pH 7.8) containing 420 mM NaCl, 1.5 mM MgCl2, 0.2 mM EDTA, 0.5 mM DTT, 0.2 mM PMSF, and 20% glycerol, and centrifuged at 12000×g for 5 min at 4° C. The supernatant containing nuclear proteins was collected and assayed protein concentration and stored at −70° C. […] The binding reaction was carried out in 25 μl of the mixture containing 5 μl of incubation buffer [10 mM Tris-HCl (pH 7.5), 100 mM NaCl, 1 mM DTT, 1 mM EDTA, 4% (v/v) glycerol, and 0.1 mg/ml sonicated salmon sperm DNA], 10 μg of nuclear extracts, and 100,000 cpm of the labeled probe. After 50 min of incubation at room temperature, the samples and comparative samples mixed with 3 μl of loading buffer (250 mM Tris-HCl (pH7.5), 0.2% bromophenol blue, 40% glycerol) were electrophoresed through a 6% non-denaturing polyacrylamide gel at 150 V for 2 hrs. Finally, the gel was dried and exposed to X-ray film.

[4] = tested on: NF-κB; settings: for binding activity of NF-κB induced by cisplatin: liver, oral pretreatment before cisplatin
Description: as §2, §1, §3

[5] = tested on: COX-2; experiment: Semiquantitative RT-PCR of liver, COX-2 mRNA expression; format: in vivo, mice; settings: for cisplatin-induced COX-2 mRNA expression: pretreatment 200 mg/kg before cisplatin
Description: (§4) The mRNA expression levels of NF-κB-dependent genes, COX-2 and iNOS, were evaluated by semiquantitative RT-PCR using specific primer sets. β-actin and GAPDH were used as control.
as §1

[6] = tested on: iNOS; experiment: Semiquantitative RT-PCR of liver, iNOS mRNA expression; format: in vivo, mice; settings: for induction of iNOS mRNA expression by cisplatin: pretreatment before cisplatin
Description: as §4, §1

[7] = tested on: S100A9; experiment: DDRT-PCR and semiquantitative RT-PCR of liver, S100A9 mRNA expression; format: in vivo, mice
[8] = tested on: ClpX; experiment: DDRT-PCR and semiquantitative RT-PCR of liver, ClpX mRNA expression; format: in vivo, mice
[9] = tested on: Kin; settings: mouse, in vivo
Description: After that, powdered liver tissues were homogenized using TRIzol™ reagent (Life technologies, Austria). The homogenized samples were incubated for 5 min at room temperature to permit the complete dissociation of nucleoprotein complexes. After the addition of 0.2 volume of chloroform, samples were shaken vigorously for 15 seconds, incubated for 2-3 min, and centrifuged at 12000×g for 15 min at 4° C. Total RNA in the upper aqueous phase was precipitated by mixing with an equal volume of isopropanol. The mixtures were incubated for 10 min at 4° C. and centrifuged at 12000×g for 10 min at 4° C. Total RNA pellet was washed with 75% ethanol, dried, and dissolved in RNase free water. To prevent the contamination with chromosomal DNA, total RNA samples were incubated with 10 units of DNase I (GenHunter Corp., Nashville, USA) at 37° C. for 30 min, and then DNA-free RNA was isolated using TRIzol reagent. The concentration and purity of total RNA and DNase-I-treated total RNA were calculated with absorbance at 260 and 280 nm.
DDRT-PCR (differential display reverse transciption-polymerase chain reaction) was performed using the RNAimage kit (GenHunter Corp., Nashville, USA). […]

[10] = tested on: CP
Description: Each example group consisted of 10 ICR mice (5 weeks, male). […] Only the corn oil was dosed orally as a negative control. […] Mice were weighed 16 h after the injection, killed under ether anesthesia and blood and liver samples were collected. The kidney and spleen were separated and weighed, respectively.
After that, powdered liver tissues were homogenized using TRIzol™ reagent (Life technologies, Austria). The homogenized samples were incubated for 5 min at room temperature to permit the complete dissociation of nucleoprotein complexes. After the addition of 0.2 volume of chloroform, samples were shaken vigorously for 15 seconds, incubated for 2-3 min, and centrifuged at 12000×g for 15 min at 4° C. Total RNA in the upper aqueous phase was precipitated by mixing with an equal volume of isopropanol. The mixtures were incubated for 10 min at 4° C. and centrifuged at 12000×g for 10 min at 4° C. […] The concentration and purity of total RNA and DNase-I-treated total RNA were calculated with absorbance at 260 and 280 nm. […]
Semiquantitative RT-PCR was performed to confirm the results from DDRT-PCR. To set the most suitable PCR amplification conditions, primers for interesting gene were determined by an on-line primer design program (Rozen and Skaletsky, 2000). […]

[11] = tested on: rat uterine; settings: Ponce-Monter et al. 1999; cited from earlier work
[12] = tested on: Streptococcus mutans; settings: Hwang 2000; cited from earlier work
[13] = cisplatin 45 mg/kg i.p. alone (corn oil orally 4 days), 16 h after injection
[14] = cisplatin 45 mg/kg i.p. alone, 16 h after injection
[15] = administration of cisplatin alone
[16] = 200 mg/kg per day orally 4 days, then cisplatin 45 mg/kg i.p., 16 h
[17] = liver, oral pretreatment before cisplatin
[18] = 100 mg/kg per day orally 4 days, then cisplatin 45 mg/kg i.p., 16 h
[19] = 200 mg/kg per day orally 4 days, then cisplatin 45 mg/kg i.p., 16 h, listed as xanthorrhizol

SMILES: N.N.[Cl][Pt][Cl] [Cisplatin, cis-diamminedichloroplatinum [II], reference compound]
- K.W/B.W * 1000% (kidney weight/body weight) [1, 13]: 19.2 ± 1.6
- S.W/B.W * 1000% (spleen weight/body weight) [1, 13]: 2.1 ± 0.4
- BUN (blood urea nitrogen) [2, 14]: 144.4 ± 20.6 mg/dL
- Creatinine [2, 14]: 2.8 ± 0.7 mg/dL
- GOT [2, 14]: 517.1 ± 99.1 U/liter
- GPT [2, 14]: 185.8 ± 86.3 U/liter
- DNA-binding activity of AP-1 ([3]; mouse, in vivo): decreased
- DNA-binding activity of NF-κB ([4]; mouse, in vivo): increased
- COX-2 mRNA expression [5, 15]: highly induced
- iNOS mRNA expression [6, 15]: highly induced
- S100A9 mRNA expression ([7]; cisplatin alone): upregulated
- ClpX mRNA expression ([8]; cisplatin alone): downregulated
- Kin mRNA expression [9]: upregulated
- CP mRNA expression ([10]; mouse, in vivo): downregulated

SMILES: COc1cc(/C=C/C(=O)CC(=O)/C=C/c2ccc(O)c(OC)c2)ccc1O [Curcumin, curcumin, reference compound]
- K.W/B.W * 1000% (kidney weight/body weight) [1, 16]: 17.2 ± 1.7
- S.W/B.W * 1000% (spleen weight/body weight) [1, 16]: 2.0 ± 0.1
- specific gravity of kidney [1]: decreased specific gravity of kidney at the level similar to that of the control group
- BUN (blood urea nitrogen) [2, 16]: 138.6 ± 46.2 mg/dL
- Creatinine [2, 16]: 2.2 ± 1.4 mg/dL
- GOT [2, 16]: 381.6 ± 144.7 U/liter
- GPT [2, 16]: 158.4 ± 84.3 U/liter
- suppressed binding activity of AP-1 (by cisplatin) [3, 17]: did not change
- binding activity of NF-κB induced by cisplatin [4]: suppressed
- cisplatin-induced COX-2 mRNA expression [5]: returned the cisplatin-induced COX-2 mRNA expression to initial level
- induction of iNOS mRNA expression by cisplatin [6]: not suppressed
- CP mRNA expression level changed by cisplatin ([10]; liver, pretreatment before cisplatin): did not show that effect

SMILES: CC(C)=CCC[C@@H](C)c1ccc(C)c(O)c1 [Xanthorrhizol, xanthorrhizol]
- K.W/B.W * 1000% (kidney weight/body weight) [1, 18]: 17.5 ± 2.9
- S.W/B.W * 1000% (spleen weight/body weight) [1, 18]: 2.1 ± 0.4
- K.W/B.W * 1000% (kidney weight/body weight) [1, 16]: 14.6 ± 0.9
- S.W/B.W * 1000% (spleen weight/body weight) [1, 16]: 2.0 ± 0.3
- specific gravity of kidney [1]: decreased specific gravity of kidney at the level similar to that of the control group
- BUN (blood urea nitrogen) [2, 18]: 145.2 ± 23.5 mg/dL
- Creatinine [2, 18]: 2.0 ± 1.1 mg/dL
- GOT [2, 18]: 296.5 ± 74.5 U/liter
- GPT [2, 18]: 134.2 ± 58.5 U/liter
- BUN (blood urea nitrogen) [2, 16]: 50.9 ± 16.7 mg/dL
- Creatinine [2, 16]: 0.8 ± 0.5 mg/dL
- GOT [2, 16]: 201.4 ± 50.3 U/liter
- GPT [2, 16]: 106.0 ± 28.3 U/liter
- BUN (blood urea nitrogen) [2, 19]: significantly decreased
- Creatinine [2, 19]: significantly decreased
- GPT [2, 19]: significantly reduced
- recovery of the binding activity of AP-1 suppressed by cisplatin [3, 17]: about 50%
- binding activity of NF-κB induced by cisplatin [4]: suppressed
- cisplatin-induced COX-2 mRNA expression [5]: returned the cisplatin-induced COX-2 mRNA expression to initial level
- induction of iNOS mRNA expression by cisplatin [6]: strongly suppressed
- S100A9 mRNA expression level changed by cisplatin ([7]; pretreatment before cisplatin): reversed
- ClpX mRNA expression level changed by cisplatin ([8]; pretreatment before cisplatin): maintained the ClpX mRNA expression in the same level as without administrating with cisplatin; also recorded: reversed
- tonic contraction of rat uterine [11]: dose-dependently limits tonic contraction
- antibacterial effect against oral bacteria such as Streptococcus mutans [12]: antibacterial effect
